#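 1) Cells in 96-well plates. 2) Compound, 48 h, 5 concentrations. 3) Linear interpolation between surrounding doses. 4) Unreached endpoint = highest concentration. Abbreviation: GI50, concentration required for 50% inhibition of growth. TGI marks complete inhibition of growth.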
# How the values were obtained:
# Experiment in all cases: growth of human tumour cells (NCI), 48 h
# [1] = system: 786-0 renal
# [2] = system: A498 renal
# [3] = system: A549 NSCLC
# [4] = system: ACHN renal
# [5] = system: BT-549 breast
# [6] = system: CAKI-1 renal
# [7] = system: CCRF-CEM leukemia
# [8] = system: COLO 205 colon
# [9] = system: DU-145 prostate
# [10] = system: HCC-2998 colon
# [11] = system: HCT-116 colon
# [12] = system: HCT-15 colon
# [13] = system: HL-60(TB) leukemia
# [14] = system: HOP-62 NSCLC
# [15] = system: HOP-92 NSCLC
# [16] = system: HS 578T breast
# [17] = system: HT29 colon
# [18] = system: IGROV1 ovarian
# [19] = system: K-562 leukemia
# [20] = system: KM12 colon
# [21] = system: LOX IMVI melanoma
# [22] = system: M14 melanoma
# [23] = system: MALME-3M melanoma
# [24] = system: MCF7 breast
# [25] = system: MDA-MB-231 breast
# [26] = system: MDA-MB-435
# [27] = system: MOLT-4 leukemia
# [28] = system: NCI-H226 lung
# [29] = system: NCI-H23 lung
structure (smiles),measurement,setting,value
Cc1cc(-c2ccccc2)c(C)n1Cc1ccc(Cl)cc1,GI50,[1],5.35 µM
same,TGI,[1],39.9 µM
same,GI50,[2],2.21 µM
same,TGI,[2],47.9 µM
same,GI50,[3],5.73 µM
same,TGI,[3],> 100 µM
same,GI50,[4],4.99 µM
same,TGI,[4],> 100 µM
same,GI50,[5],5.5 µM
same,TGI,[5],> 100 µM
same,GI50,[6],3.66 µM
same,TGI,[6],> 100 µM
same,GI50,[7],3.46 µM
same,TGI,[7],> 100 µM
same,GI50,[8],5.96 µM
same,TGI,[8],27.8 µM
same,GI50,[9],6.87 µM
same,TGI,[9],> 100 µM
same,GI50,[10],15.1 µM
same,TGI,[10],93.7 µM
same,GI50,[11],3.8 µM
same,TGI,[11],23.4 µM
same,GI50,[12],2.86 µM
same,TGI,[12],> 100 µM
same,GI50,[13],4.3 µM
same,TGI,[13],55.8 µM
same,GI50,[14],6.12 µM
same,TGI,[14],> 100 µM
same,GI50,[15],1.51 µM
same,TGI,[15],9.28 µM
same,GI50,[16],4.43 µM
same,TGI,[16],> 100 µM
same,GI50,[17],3.28 µM
same,TGI,[17],17.6 µM
same,GI50,[18],5.21 µM
same,TGI,[18],> 100 µM
same,GI50,[19],0.84 µM
same,TGI,[19],> 100 µM
same,GI50,[20],4.26 µM
same,TGI,[20],> 100 µM
same,GI50,[21],6.95 µM
same,TGI,[21],> 100 µM
same,GI50,[22],3.21 µM
same,TGI,[22],31.6 µM
same,GI50,[23],3.85 µM
same,TGI,[23],39.1 µM
same,GI50,[24],3.11 µM
same,TGI,[24],> 100 µM
same,GI50,[25],6.17 µM
same,TGI,[25],32.3 µM
same,GI50,[26],0.368 µM
same,TGI,[26],2.55 µM
same,GI50,[27],4.84 µM
same,TGI,[27],91.9 µM
same,GI50,[28],26.3 µM
same,TGI,[28],> 100 µM
same,GI50,[29],8.24 µM

# From PubChem BioAssay (NCI)
